Assay results from ChEMBL document CHEMBL1131086, “Synthesis and biological activity of conformationally restricted analogues of milnacipran: (1S, 2R)-1-phenyl-2-[(R)-1-amino-2-propynyl]-N,N- diethylcyclopropanecarboxamide is a novel class of NMDA receptor channel blocker” (J Med Chem, 1998).

Experiments:
[1] = biological target: Glutamate NMDA receptor; set-up: species or system Rattus norvegicus
Description: Inhibition of [3H]MK-801 binding to N-methyl-D-aspartate glutamate receptor of rat cerebral cortical synaptic membrane

[2] = biological target: Sodium-dependent serotonin transporter (Rattus norvegicus, UniProt P31652); assay: Inhibition of Serotonin transporter in cerebral cortical synaptic membrane of rats using [3H]paroxetine
Chain of Sodium-dependent serotonin transporter (P31652 whole entry): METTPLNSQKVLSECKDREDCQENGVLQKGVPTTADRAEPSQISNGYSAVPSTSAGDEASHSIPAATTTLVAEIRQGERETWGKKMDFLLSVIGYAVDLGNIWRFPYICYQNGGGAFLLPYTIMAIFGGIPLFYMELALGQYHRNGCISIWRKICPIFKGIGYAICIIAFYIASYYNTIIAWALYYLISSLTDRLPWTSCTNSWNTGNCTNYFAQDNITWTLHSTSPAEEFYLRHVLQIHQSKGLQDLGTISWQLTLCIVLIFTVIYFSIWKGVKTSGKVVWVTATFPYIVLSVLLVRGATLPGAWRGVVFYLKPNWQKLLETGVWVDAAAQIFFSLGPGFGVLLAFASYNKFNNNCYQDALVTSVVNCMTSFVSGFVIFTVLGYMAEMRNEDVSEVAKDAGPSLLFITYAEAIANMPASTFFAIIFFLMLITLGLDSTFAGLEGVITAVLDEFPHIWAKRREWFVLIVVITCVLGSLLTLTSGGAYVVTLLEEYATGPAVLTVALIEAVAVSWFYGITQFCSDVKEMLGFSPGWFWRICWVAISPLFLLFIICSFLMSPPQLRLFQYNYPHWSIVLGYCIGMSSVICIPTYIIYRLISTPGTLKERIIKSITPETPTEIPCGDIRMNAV

[3] = biological target: GABA-A receptor; anion channel (Rattus norvegicus) (UniProt O09028+P15431+P18506+P18508+P19969+P20236+P23574+P23576+P28471+P28473+P30191+P62813+P63079+P63138+Q91ZM7+Q9ES14); assay: Compound tested for relative response using 30 uM GABA as agonist against Gamma-aminobutyric acid A receptor; type: functional
[4] = biological target: Glutamate receptor ionotropic, kainate (Rattus norvegicus) (UniProt P22756+Q01812+P42260+P42264+Q63273); assay: Compound tested for relative response using 30 uM kainate as agonist against Ionotropic glutamate receptor kainate; type: functional
[5] = biological target: Glutamate receptor ionotropic, NMDA 1 (Rattus norvegicus) (UniProt P35439); assay: Compound tested for relative response using 30 uM NMDA+10 uM glycine as agonist against N-methyl-D-aspartate glutamate receptor 1; type: functional
[6] = biological target: Glutamate receptor ionotropic, AMPA (Rattus norvegicus) (UniProt P19491+P19492+P19493+P19490); assay: Compound tested for relative response using 10 uM AMPA as agonist against Ionotropic glutamate receptor AMPA; type: functional
[7] = biological target: T1, Muscarinic acetylcholine receptor M1 (Rattus norvegicus) (UniProt P08482); assay: Compound tested for relative response using 1 uM ACh as agonist against AChM1 receptor.; type: functional
T1 sequence (whole entry): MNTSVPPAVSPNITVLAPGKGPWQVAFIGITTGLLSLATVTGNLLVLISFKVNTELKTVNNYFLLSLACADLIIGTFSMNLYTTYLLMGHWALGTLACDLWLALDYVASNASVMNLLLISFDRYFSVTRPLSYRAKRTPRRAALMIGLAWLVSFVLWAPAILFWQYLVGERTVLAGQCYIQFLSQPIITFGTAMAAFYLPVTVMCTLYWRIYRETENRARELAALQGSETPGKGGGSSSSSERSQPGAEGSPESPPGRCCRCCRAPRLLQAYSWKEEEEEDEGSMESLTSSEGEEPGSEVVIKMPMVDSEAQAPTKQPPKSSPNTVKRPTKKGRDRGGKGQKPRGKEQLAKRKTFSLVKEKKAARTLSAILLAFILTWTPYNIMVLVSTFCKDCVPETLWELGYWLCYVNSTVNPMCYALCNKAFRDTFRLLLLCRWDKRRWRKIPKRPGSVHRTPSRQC

[8] = biological target: T2, 5-hydroxytryptamine receptor 2C (Rattus norvegicus) (UniProt P08909); assay: Compound tested for relative response using 0.1 uM 5-HT as agonist against 5-hydroxytryptamine 2C receptor; type: functional
T2 sequence (whole entry): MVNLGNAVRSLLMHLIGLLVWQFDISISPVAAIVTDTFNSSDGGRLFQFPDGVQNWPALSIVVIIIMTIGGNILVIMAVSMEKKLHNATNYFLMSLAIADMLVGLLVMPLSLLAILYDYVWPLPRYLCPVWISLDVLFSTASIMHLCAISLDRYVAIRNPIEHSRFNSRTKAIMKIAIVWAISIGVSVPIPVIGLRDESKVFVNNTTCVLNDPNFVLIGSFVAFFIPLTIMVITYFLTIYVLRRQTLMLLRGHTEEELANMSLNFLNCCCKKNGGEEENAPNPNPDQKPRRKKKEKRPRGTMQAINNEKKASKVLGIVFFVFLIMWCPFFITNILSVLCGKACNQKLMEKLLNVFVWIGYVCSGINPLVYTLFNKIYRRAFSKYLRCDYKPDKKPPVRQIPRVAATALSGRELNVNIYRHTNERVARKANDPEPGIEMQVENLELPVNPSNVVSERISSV

SMILES	IC50 [1]	Ki [2]	also measured
CCN(CC)C(=O)[C@@]1(c2ccccc2)C[C@H]1C(N)C(=O)O (some centres undefined)	> 100 µM	> 100 µM	
CCN(CC)C(=O)[C@@]1(c2ccccc2)C[C@H]1C(N)C(N)=O (some centres undefined)	27 µM	> 100 µM	
C#CC(N)[C@@H]1C[C@@]1(C(=O)N(CC)CC)c1ccccc1 (stereo in doubt; 2d) [listing 1 of 2 here]	0.29 µM	0.19 µM	
C#CC(N)[C@@H]1C[C@@]1(C(=O)N(CC)CC)c1ccccc1 (stereo in doubt; 2d) [listing 2 of 2 here]			Relative response [3]: 99.6%; Relative response [4]: 96.9%; Relative response [5]: 32.1%; Relative response [6]: 100%; Relative response [7]: 102%; Relative response [8]: 100%
CCN(CC)C(=O)[C@@]1(c2ccccc2)C[C@H]1C(N)C#N (stereo in doubt; 2e)	96 µM	> 100 µM	
CCN(CC)C(=O)[C@@]1(c2ccccc2)C[C@H]1C(N)C#N (stereo in doubt; 3e)	> 100 µM		

More lines, main results first:

IC50 [1]	Ki [2]	SMILES	also measured
> 100 µM	25 µM	CCN(CC)C(=O)[C@@]1(c2ccccc2)C[C@H]1C(N)C(=O)OC (some centres undefined)	
16 µM	15 µM	C#CC(N)[C@@H]1C[C@@]1(C(=O)N(CC)CC)c1ccccc1 (stereo in doubt; 3d)	
